Measured values reported in patent US8772012B2 (Kabushiki Kaisha Toyota Chuo Kenkyusho, priority 2009, dated 2014).

Tests used:
[1] = system: Piromyces sp. E2 xylose isomerase PiXI, expressed in yeast; settings: Non-patent Literature 1; cited from earlier work
[2] = system: Clostridium phytofermentans xylose isomerase CpXI (protein ID: YP_001558336), expressed in yeast; settings: Non-patent Literature 1; cited from earlier work
[3] = target: Piromyces sp. E2 xylose isomerase PiXI-O (PiXI; codon optimized gene PiXI-O, SEQ ID NO: 46), expressed in yeast (Piromyces sp. E2, UniProt A0ACD6B9F5); assay: Xylose isomerase kinetic analysis, crude yeast extract of W600W/pRS436GAP-PiXI-O (SDH-coupled NADH oxidation); type: biochemical
Method: (§1) The genes were synthesized by Genscript Corporation (www.Genscript.com) and Life Technologies Corporation (www.lifetechnologies.com), and the synthesized genes were named RsXIC1-O (SEQ ID NO: 45), PiXI-O (SEQ ID NO: 46) and CpXI-O (SEQ ID NO: 47), respectively.
(§2) The W600W/pRS436GAP-RsXIC1-O strain and W600W/pRS436GAP-PiXI-O strain were cultured for 24 hours in SD liquid medium, and the cells were collected and washed twice with sterile water, and then washed twice with 100 mM phosphate buffer (pH 7.0). After washing, glass beads (di 0.3 mm, Yasui Kikai) and 100 mM phosphate buffer (pH 7.0) were added to the yeast pellets, and a Multi-beads shocker (Yasui Kikai) was operated for 7 minutes at 4° C., 2500 rpm to disrupt the yeast cells. The resulting disrupted cell liquid was centrifuged for 5 minutes at 4° C., 12000 rpm, and the supernatant was collected as a crude yeast extract. The total protein concentration of the crude yeast extract was measured with a Quick Start protein assay kit (Bio-Rad).
(§3) The reaction was performed at 30° C., and NADH absorbancy changes were measured at a wavelength of 340 nm with a Ubest-55 spectrometer (Jasco).

[4] = system: Xylose isomerase RsXIC1-O (RsXI-C1, SEQ ID NO: 2; codon optimized gene RsXIC1-O, SEQ ID NO: 45), intestinal protist of Reticulitermes speratus, expressed in …; assay: Xylose isomerase kinetic analysis, crude yeast extract of W600W/pRS436GAP-RsXIC1-O (SDH-coupled NADH oxidation); type: biochemical
Method: as §1, §2, §3

[5] = xylose 5 to 250 mM, pH 7.5, 30° C., 10 mM MgCl2, crude yeast extract, Hanes-Woolf plot

Piromyces sp. E2 xylose isomerase PiXI-O (PiXI; codon optimized gene PiXI-O, SEQ ID NO: 46), expressed in yeast, sequence (A0ACD6B9F5 1-437): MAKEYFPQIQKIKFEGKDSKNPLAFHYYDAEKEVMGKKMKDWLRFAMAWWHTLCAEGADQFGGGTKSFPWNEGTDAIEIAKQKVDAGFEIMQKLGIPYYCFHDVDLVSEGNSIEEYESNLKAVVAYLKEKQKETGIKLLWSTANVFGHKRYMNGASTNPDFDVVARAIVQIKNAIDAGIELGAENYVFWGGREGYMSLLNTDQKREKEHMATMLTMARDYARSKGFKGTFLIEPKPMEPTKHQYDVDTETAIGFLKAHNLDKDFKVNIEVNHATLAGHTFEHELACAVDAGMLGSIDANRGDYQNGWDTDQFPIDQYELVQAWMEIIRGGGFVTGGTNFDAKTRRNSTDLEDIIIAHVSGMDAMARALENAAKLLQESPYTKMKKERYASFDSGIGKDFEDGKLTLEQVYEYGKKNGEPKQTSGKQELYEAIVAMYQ

Q: What does the source list for OC1OC[C@@H](O)[C@H](O)[C@H]1O (stereo partly shown) [xylose]?
A: Km [1]: 49.8 ± 2.82 mM; Km [2]: 66 ± 1 mM; maximum reaction velocity Vmax for PiXI-O relative to RsXIC1-O ([3]; Vmax ratio PiXI-O vs RsXIC1-O): about 1.5 times; Vmax [3, 5]: 0.078 ± 0.026 μmol/mg-protein; Km value for RsXIC1-O relative to the value for PiXI-O ([4]; Km ratio RsXIC1-O vs PiXI-O): not more than ⅓; Km [4, 5]: 13.3 ± 2.02 mM; Vmax [4, 5]: 0.054 ± 0.007 μmol/mg-protein
